Where two headings read alike, the source gives them in different places.
System: HBV
Assay: Viral load production from HepAD38 cells, qPCR of the HBV core sequence in supernatant
Format: cell-based
Conditions: HepAD38 cells, 5 days, HBV DNA in supernatant by qPCR
Protocol: HepAD38 cells grown in a T-150 flask (Corning, cat#: 430825) with Growth Medium (DMEM/F12 (1:1) (Hyclone, cat#: SH30023.02), 1X Pen/Strep (Invitrogen, cat#: 15140-122), 10% FBS (Tissue Culture Biologics, cat#: 101), 250 µg/mL G418 (Alfa Aesar, cat#: J62671), 1 µg/mL Tetracycline (Teknova, cat#: T3320)) were detached with 0.25% trypsin-EDTA (Invitrogen, cat#: 25200-056). Tetracycline-free treatment medium (15 mL DMEM/F12 (1:1) 1× Pen/step, with 2% FBS, Tet-system approved (Clontech, cat#: 631106) were then added to mix, transferred into a 50 ml conical tube (Falcon, cat#: 21008-918,) and spun at 1300 rpm for 5 min. Pelleted cells were then re-suspended/washed with 50 mL of 1X DPBS (Invitrogen, cat#: 14190-136) 2 times and 50 mL treatment medium twice. HepAD38 cells were then re-suspended with 10 mL of treatment medium, syringed and counted. Wells of 96-well clear bottom TC plate (Corning, cat#: 3904,) were seeded at 50.000 cells/well in 180 µL of treatment medium, and 20 µL of either 10% DMSO (Sigma, cat#: D4540) as controls or a 10X solution of test compounds in 10% DMSO in treatment media was added for a final compound concentration starting at 10 µM, and plates were incubated in 5% CO2 incubator at 37° C. for 5 days.
Subsequently viral load production was assayed by quantitative PCR (qPCR) of the HBV core sequence. PCR reaction mixture containing forward primers HBV-f 5′-CTGTGCCTTGGGTGGCTTT-3′ (IDT DNA), Reverse primers HBV-r 5′-[…]-3′ (IDT DNA), Fluorescent TaqMan^tm Probes HBV-probe 5′-FAM/AGCTCCAAA/ZEN/[…]/3IABkFQ-3′ (IDT DNA), 10 µL/well of PerfeCTa® qPCR ToughMix® (Quanta Biosciences, Cat#: 95114-05 K), and 6 µL/well of DEPC water (Alfa Aesar, cat#: J62087) was prepared. Four µL of supernatant was added to 16 µL of the reaction mixture in a qPCR plate (Applied Biosytems, Cat#: 4309849), sealed with a film (Applied Biosystems, Cat#: 4311971), centrifuged for a few seconds, and subsequently run on an Applied Biosystems VIIA7. The PCR mixture was incubated at 45° C. for 5 min, then 95° C. for 10 min, followed by 40 cycles of 10 seconds at 95° C. and 20 seconds at 60° C. Viral load was quantified against known HBV DNA standards by using ViiA™ 7 Software. Viral load in the supernatant from wells with treated cells were compared against viral load in supernatant from DMSO control wells (≥ 3 per plate). Cell viability assay was performed with CellTiter-Glo Luminescent Cell Viability Assay (Promega, cat#: G7573) with modification. Mixed appropriate amount of CellTiter-Glo (CTG) 1X DPBS in a 1:1 ratio, added 100 uL of the mixture to each well followed completely removal of all supernatant in each well without touching cell surface. Incubated the plate at room temperature for 10 min on an orbital shaker, and then read the plate with a plate reader (TECAN M1000 or Envision). EC50 or CC50 values were calculated through curve-fitting of the four-parameter nonlinear-logistic-regression model (GraphPad Prism or Dotmatics). CC50 values were all >10 µM.

[1] = Hepatitis B virus, HePAD38, 120 h, Table 1 ranges, read-out: Activity (viral load lowering EC50)
[2] = Table 2 ranges, read-out: VL HepAD38 EC50 range

Row | Structure (SMILES) | EC50 [1] [µM] | EC50 [2] [µM]
1 | Cn1nc(C2CC3CC(O)(c4cc([N+](=O)[O-])nn4C4CC4)CC3C2)c(C(=O)Nc2ccc(F)c(Cl)c2)c1N (stereo not drawn) [Example 218] | < 0.01 | 
2 | Cn1nc(C2CC3CN(c4c(F)cncc4F)CC3C2)c(C(=O)Nc2ccc(F)c(Cl)c2)c1N (stereo not drawn) [Example 124, 5-Amino-N-(3-chloro-4-fluorophenyl)-3-(2-(3,5-difluoropyridin-4-yl)octahydrocyclopenta[c]pyrrol-5-yl)-1-methyl-1H-pyrazole-4-carboxamide] | 0.01 to 0.05 | 
3 | Cn1nc(C2CC3CC(CNS(=O)(=O)c4ccc(F)cc4F)CC3C2)c(C(=O)Nc2ccc(F)c(Cl)c2)c1N (stereo not drawn) [Example 85, 5-Amino-N-(3-chloro-4-fluorophenyl)-3-(5-(((2,4-difluorophenyl)sulfonamido)methyl)octahydropentalen-2-yl)-1-methyl-1H-pyrazole-4-carboxamide] | < 0.01 | 
4 | Cn1nc(C2CC3CC(O)C(c4ccccc4)C3C2)c(C(=O)Nc2ccc(F)c(Cl)c2)c1N (single isomer, unassigned) [Example 142, 5-Amino-N-(3-chloro-4-fluorophenyl)-3-(5-hydroxy-4-phenyloctahydropentalen-2-yl)-1-methyl-1H-pyrazole-4-carboxamide] |  | < 0.1
5 | Cn1nc(C2CC3CC(O)(Cc4nccs4)CC3C2)c(C(=O)Nc2ccc(F)c(Cl)c2)c1N (stereo not drawn) [Example 160] | < 0.01 | 
6 | Cc1coc(C2(O)CC3CC(c4nn(C)c(N)c4C(=O)Nc4ccc(F)c(Cl)c4)CC3C2)n1 (stereo not drawn) [Example 183] | < 0.01 | 
7 | Cn1nc(C2CC3CC(CNS(=O)(=O)c4ccc(Cl)nc4)CC3C2)c(C(=O)Nc2ccc(F)c(Cl)c2)c1N (stereo not drawn) [Example 86, 5-Amino-N-(3-chloro-4-fluorophenyl)-3-(5-(((6-chloropyridine)-3-sulfonamido)methyl)octahydropentalen-2-yl)-1-methyl-1H-pyrazole-4-carboxamide] | < 0.01 | 
8 | Cn1nc(C2CC3CC(O)(Cc4ncco4)CC3C2)c(C(=O)Nc2ccc(F)c(Cl)c2)c1N (stereo not drawn) [Example 181] | < 0.01 | 
9 | Cn1nc(C2CC3CC(CNC(=O)COCCOCCN)CC3C2)c(C(=O)Nc2ccc(F)c(Cl)c2)c1N (stereo not drawn) [Example 82, 5-Amino-3-(5-((2-(2-(2-aminoethoxy)ethoxy)acetamido)methyl)octahydropentalen-2-yl)-N-(3-chloro-4-fluorophenyl)-1-methyl-1H-pyrazole-4-carboxamide] | 0.05 to 0.5 | 
10 | Cn1nc(C2CC3CC(N4CC=C(C(=O)O)CC4)CC3C2)c(C(=O)Nc2ccc(F)c(Cl)c2)c1N (stereo not drawn) [Example 188] | > 0.5 | 
11 | COC(=O)NCC1CC2CC(c3nn(C)c(N)c3C(=O)Nc3ccc(F)c(Cl)c3)CC2C1 (stereo not drawn) [Example 48, Methyl ((5-(5-amino-4-((3-chloro-4-fluorophenyl)carbamoyl)-1-methyl-1H-pyrazol-3-yl)octahydropentalen-2-yl)methyl)carbamate] | < 0.01 | 
12 | Cn1nc(C2CC3CC(CNS(=O)(=O)C4(C)CC4)CC3C2)c(C(=O)Nc2ccc(F)c(Cl)c2)c1N (stereo not drawn) [Example 95, 5-Amino-N-(3-chloro-4-fluorophenyl)-1-methyl-3-(5-(((1-methylcyclopropane)-l-sulfonamido)methyl)octahydropentalen-2-yl)-1H-pyrazole-4-carboxamide] | < 0.01 | 
13 | Cc1cnc(C2(O)CC3CC(c4nn(C)c(N)c4C(=O)Nc4ccc(F)c(Cl)c4)CC3C2)o1 (stereo not drawn) [Example 184] | < 0.01 | 
14 | Cn1nc(C2CC3CC(CNC(=O)C4CC4)CC3C2)c(C(=O)Nc2ccc(F)c(Cl)c2)c1N (single isomer, unassigned) [Example 40, 5-Amino-N-(3-chloro-4-fluorophenyl)-3-(5-(cyclopropanecarboxamidomethyl)octahydropentalen-2-yl)-1-methyl-1H-pyrazole-4-carboxamide] | < 0.01 | 
15 | Cn1nc(C2CC3CC(O)(c4cc[nH]n4)CC3C2)c(C(=O)Nc2ccc(F)c(Cl)c2)c1N (stereo not drawn) [Example 178] | < 0.01 | 
16 | Cn1nc(C2CC3CC(CNC(=O)CCCCCN)CC3C2)c(C(=O)Nc2ccc(F)c(Cl)c2)c1N (stereo not drawn) [Example 81, 5-Amino-3-(5-((6-aminohexanamido)methyl)octahydropentalen-2-yl)-N-(3-chloro-4-fluorophenyl)-1-methyl-1H-pyrazole-4-carboxamide] | 0.05 to 0.5 | 
17 | Cc1ccc(C2(O)CC3CC(c4nn(C)c(N)c4C(=O)Nc4ccc(F)c(Cl)c4)CC3C2)cc1 (stereo not drawn) [Example 6, 5-Amino-N-(3-chloro-4-fluorophenyl)-3-(5-hydroxy-5-(p-tolyl)octahydropentalen-2-yl)-1-methyl-1H-pyrazole-4-carboxamide] | < 0.01 | 
18 | Cn1nc(C2CC3CC(CNC(=O)CCCN4CCOCC4)CC3C2)c(C(=O)Nc2ccc(F)c(Cl)c2)c1N (stereo not drawn) [Example 72, 5-Amino-N-(3-chloro-4-fluorophenyl)-1-methyl-3-(5-((4-morpholinobutanamido)methyl)octahydropentalen-2-yl)-1H-pyrazole-4-carboxamide] | < 0.01 | 
19 | Cn1nccc1C1(O)CC2CC(c3nn(C)c(N)c3C(=O)Nc3ccc(F)c(Cl)c3)CC2C1 (stereo not drawn) [Example 26, 5-Amino-N-(3-chloro-4-fluorophenyl)-3-(5-hydroxy-5-(1-methyl-1H-pyrazol-5-yl)octahydropentalen-2-yl)-1-methyl-1H-pyrazole-4-carboxamide] | < 0.01 | 
20 | Cn1nc(C2CC3CC(c4ccccc4)C(O)C3C2)c(C(=O)Nc2ccc(F)c(Cl)c2)c1N (single isomer, unassigned) [Example 143, 5-Amino-N-(3-chloro-4-fluorophenyl)-3-(4-hydroxy-5-phenyloctahydropentalen-2-yl)-1-methyl-1H-pyrazole-4-carboxamide] |  | < 0.1
21 | Cn1nc(C2CC3CC(CNS(=O)(=O)C4CCS(=O)(=O)CC4)CC3C2)c(C(=O)Nc2ccc(F)c(Cl)c2)c1N (stereo not drawn) [Example 97, 5-Amino-N-(3-chloro-4-fluorophenyl)-3-(5-(((1,1-dioxidotetrahydro-2H-thiopyran)-4-sulfonamido)methyl)octahydropentalen-2-yl)-1-methyl-1H-pyrazole-4-carboxamide] | 0.01 to 0.05 | 
22 | Cn1nc(N)cc1C1(O)CC2CC(c3nn(C)c(N)c3C(=O)Nc3ccc(F)c(Cl)c3)CC2C1 [Example 155, 5-amino-3-((2 s,3aR,5r,6aS)-5-(3-amino-1-methyl-1H-pyrazol-5-yl)-5-hydroxyoctahydropentalen-2-yl)-N-(3-chloro-4-fluorophenyl)-1-methyl-1H-pyrazole-4-carboxamide] | < 0.01 | 
23 | CCn1nc(N)cc1C1=CC2CC(c3nn(C)c(N)c3C(=O)Nc3ccc(F)c(Cl)c3)CC2C1 (stereo not drawn) [Example 214] | < 0.01 | 
24 | COCCOCCOCCOCCOCCOCCOCCOC(=O)OCn1cc(C2(O)CC3CC(c4nn(C)c(N)c4C(=O)Nc4ccc(F)c(Cl)c4)CC3C2)c(C(F)(F)F)n1 (stereo not drawn) [Example 229] | < 0.01 | 
25 | Cn1nc(C2CC3CN(C4COC4)CC3C2)c(C(=O)Nc2ccc(F)c(Cl)c2)c1N (stereo not drawn) [Example 117, 5-Amino-N-(3-chloro-4-fluorophenyl)-1-methyl-3-(2-(oxetan-3-yl)octahydrocyclopenta[c]pyrrol-5-yl)-1H-pyrazole-4-carboxamide] | 0.05 to 0.5 | 
26 | Cn1cc(Br)c(C2(O)CC3CC(c4nn(C)c(N)c4C(=O)Nc4ccc(F)c(Cl)c4)CC3C2)n1 (stereo not drawn) [Example 150] | < 0.01 | 
27 | CC(C)S(=O)(=O)NCC1CC2CC(c3nn(C)c(N)c3C(=O)Nc3ccc(F)c(Cl)c3)CC2C1 (stereo not drawn) [Example 90, 5-Amino-N-(3-chloro-4-fluorophenyl)-1-methyl-3-(5-(((1-methylethyl)sulfonamido)methyl)octahydropentalen-2-yl)-1H-pyrazole-4-carboxamide] | < 0.01 | 

— US20230295096A1, “PYRAZOLE CARBOXAMIDE COMPOUNDS FOR TREATMENT OF HBV” (ASSEMBLY BIOSCIENCES, INC., priority 2020, published 2023)
